Reference: PubChem BioAssay (NCI)
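Grown in 96-well plates, cells were treated for 48 hours with each compound at five concentrations. Insufficient inhibition: endpoint recorded as highest concentration tested. GI50 = concentration required for 50% inhibition of growth. TGI: total growth inhibition.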

Experiments:
Assay in all cases: NCI anticancer screen, dose series, 48 h
[1] = system: SK-OV-3 ovarian
[2] = system: NCI-H522 lung
[3] = system: PC-3 prostate
[4] = system: EKVX NSCLC
[5] = system: HOP-92 NSCLC
[6] = system: NCI-H460 lung
[7] = system: T-47D breast
[8] = system: SF-539 CNS
[9] = system: NCI-H226 lung
[10] = system: RXF 393 renal

Compound	TGI [1] [µM]	TGI [2] [µM]	TGI [3] [µM]	TGI [4] [µM]	TGI [5] [µM]	TGI [6] [µM]	TGI [7] [µM]	TGI [8] [µM]	TGI [9] [µM]	TGI [10] [µM]	GI50 [1] [µM]	GI50 [2] [µM]	GI50 [3] [µM]	GI50 [4] [µM]	GI50 [5] [µM]	GI50 [8] [µM]	GI50 [6] [µM]	GI50 [10] [µM]	GI50 [9] [µM]
C[C@H](C/C=C/C(C)(C)O)[C@H]1CC[C@@]2(C)[C@@H]3CC[C@H]4C(C)(C)[C@@H](O)CC[C@@]45C[C@@]35CC[C@]12C	> 100	15.4	65.1	34.7	26.5	54.2	49.7	30.8	38.5	–	–	–	–	–	–	–	–	–	–
COc1cccc(-c2cc(=O)c3ccccc3[nH]2)c1	> 100	> 34.2	–	> 100	–	> 100	–	18.7	> 29.6	21	–	–	–	–	–	–	–	–	–
N#C/C(=C/NC(=S)c1ccncc1)C(N)=O	> 100	–	–	> 100	> 100	> 100	> 100	> 100	> 100	> 100	–	–	–	–	–	–	–	–	–
COc1cccc(/C=N/[N-]C(N)=O)c1[O-].[Cu+2].[OH3+].c1ccc(-c2ccccn2)nc1	27.3	28.4	–	> 78.2	29.8	> 100	–	67.7	88.1	40.8	–	–	–	–	–	–	–	–	–
Fc1cccc(F)c1C1SCc2nc3ccc(Cl)cc3n21 (configuration not stated)	> 100	> 100	> 100	> 100	> 100	> 100	> 100	> 100	–	> 100	–	–	–	–	–	–	–	–	–
CCOC(=O)C1=COC(C)(CCc2ccccc2)CC1=O (configuration not stated)	> 100	89.8	> 100	> 100	–	> 100	> 100	> 100	–	> 100	–	–	–	–	–	–	–	–	–
COc1ccc(-n2sc3ncccc3c2=O)cc1	> 100	46.4	53.5	28.4	58.6	> 100	44.1	37.7	> 100	–	–	–	–	–	–	–	–	–	–
CN(C)c1cc[n+](-c2nc(/N=C(\[O-])C(F)(F)F)nc3c2ncn3C2CC(O)C(CO)O2)cc1 (configuration not stated)	> 100	> 100	> 100	> 100	–	> 100	> 100	> 100	> 100	> 100	–	–	–	–	–	–	–	–	–
NC(Cc1ccc(S(=O)(=O)O)cc1)C(=O)NC(Cc1ccc(S(=O)(=O)O)cc1)C(=O)O (configuration not stated)	–	> 100	> 100	> 100	–	> 100	> 100	> 100	> 100	> 100	–	–	–	–	–	–	–	–	–
CC1C(c2ccc(Cl)cc2)c2cc3c(cc2OC1N1CCOCC1)OCO3 (configuration not stated)	–	> 100	> 100	> 100	–	> 100	> 100	> 100	–	–	–	–	–	–	–	–	–	–	–
C=CCOCn1cc(C)c(=O)[nH]c1=O	> 100	50.2	> 100	> 100	–	> 100	> 100	> 100	> 100	–	–	–	–	–	–	–	–	–	–
CCOC(=O)Cc1nc2c(N)ncnc2n1C1OC(COC(C)=O)C(OC(C)=O)C1OC(C)=O (configuration not stated)	> 100	> 100	> 100	> 100	> 100	> 100	> 100	> 100	> 100	–	–	–	–	–	–	–	–	–	–
C[C@H]1S[C@H](c2c(Cl)cccc2Cl)N2Cc3ccccc3N=C12	38.3	–	37.7	23.4	> 100	32.4	36.4	38.1	–	30.4	–	–	–	–	–	–	–	–	–
CCOC(=O)C1=C(C)N(c2ccc(OC)cc2)C2(O)C=CC(=O)C3=C(O)c4ccccc4C(=O)C312 (configuration not stated)	31.1	11.9	24.4	23.4	9.75	28	32.7	21.2	–	–	–	–	–	–	–	–	–	–	–
O=C(NC(=S)NC(=O)c1cc(O)c(O)c(O)c1)c1cc(O)c(O)c(O)c1	> 100	70.3	39.8	–	> 100	> 100	–	> 100	> 100	41.5	–	–	–	–	–	–	–	–	–
Cc1nc2c(=S)n(C)ncc2[nH]1	> 100	> 100	> 100	> 100	–	–	> 100	> 100	> 100	–	–	–	–	–	–	–	–	–	–
Cc1cc(=O)[nH]c(NN2C(Cl)C(=O)C2c2cccc(Cl)c2)n1 (configuration not stated)	–	–	–	> 100	41.5	43.2	–	39.4	–	23.2	–	–	–	–	–	–	–	–	–
O=C(OCC(Cl)(Cl)Cl)O[C@@H]1CCCC1(c1ccccc1)c1ccccc1	> 100	> 100	> 100	> 100	–	> 100	> 100	–	> 100	> 100	–	–	–	–	–	–	–	–	–

Compound	TGI [1] [µM]	TGI [2] [µM]	TGI [3] [µM]	TGI [4] [µM]	TGI [5] [µM]	TGI [6] [µM]	TGI [7] [µM]	TGI [8] [µM]	TGI [9] [µM]	TGI [10] [µM]	GI50 [1] [µM]	GI50 [2] [µM]	GI50 [3] [µM]	GI50 [4] [µM]	GI50 [5] [µM]	GI50 [8] [µM]	GI50 [6] [µM]	GI50 [10] [µM]	GI50 [9] [µM]
COc1ccc(C(OCC2OC(n3ccc(NC(=O)c4ccccc4)nc3=O)CC2OP2(=S)SCCS2)(c2ccccc2)c2ccc(OC)cc2)cc1 (configuration not stated)	64.2	53	41.5	> 100	–	> 100	> 100	–	67.4	88.1	–	–	–	–	–	–	–	–	–
O=C1Nc2ccccc2Nc2ccncc21	> 100	> 100	–	> 100	> 100	> 100	–	> 100	> 100	> 100	–	–	–	–	–	–	–	–	–
Cc1ccccc1NC(=O)Cc1csc2[n+]1C(=O)/C(=C/c1ccc([N+](=O)[O-])cc1)S2	> 100	–	> 100	> 100	> 100	88	> 100	> 100	> 100	–	–	–	–	–	–	–	–	–	–
CC1=NC(=Cc2ccc([N+](=O)[O-])cc2)C(=O)N1n1c(-c2ccccc2)nc2ccccc2c1=O	> 100	74.5	> 100	> 100	–	–	> 100	> 100	> 100	–	–	–	–	–	–	–	–	–	–
CC(C)(C)N(Cc1ccc2c(c1)OCO2)C(=O)/C=C\Sc1ccccc1	> 100	59	> 100	> 100	91	–	> 100	> 100	> 100	–	–	–	–	–	–	–	–	–	–
COc1ccc2c(OCc3nnc4ccc(-c5ccccc5)nn34)ccnc2c1	> 100	> 43.8	> 100	> 100	> 100	–	–	> 100	–	–	> 100	20.1	> 100	> 100	> 100	> 100	–	–	–
O=C1C(CN2CCOCC2)CCCC1CN1CCOCC1 (configuration not stated)	51.8	0.156	28.9	10.7	1.97	49	–	7.45	40.3	4.14	–	–	–	–	–	–	–	–	–
COC(=O)c1ccc(Nc2nc3nc[nH]c3c(=O)[nH]2)cc1	> 100	> 100	> 100	> 100	> 100	> 100	> 100	> 100	> 100	–	–	–	–	–	–	–	–	–	–
Cc1nc2ccccc2c(/C=C/c2ccc(Cl)cc2)c1C(=O)/C=C/c1ccc(Cl)cc1	–	4.77	–	–	–	3.15	–	3.14	3.29	3	–	1.25	–	–	–	1.71	1.41	1.52	1.59
O=C(NNc1nc(-c2ccccc2)cs1)C(F)(F)F	> 100	> 100	> 100	> 100	–	> 100	> 100	–	> 100	> 100	–	–	–	–	–	–	–	–	–
COc1ccc(C(C2=C(O)COC2=O)c2cc3c(cc2O)OCO3)cc1OC (configuration not stated)	> 100	–	> 100	> 100	> 100	> 100	–	> 100	> 100	> 100	–	–	–	–	–	–	–	–	–
Clc1ccc(OCc2nn3c(CCc4nnc5sc(COc6ccc(Cl)cc6)nn45)nnc3s2)cc1	> 100	30.1	53.1	> 100	–	51.4	> 100	> 100	> 100	61.2	–	–	–	–	–	–	–	–	–
CSc1c(C(=O)Nc2ccc(Cl)cc2)c(N)n(N)c(=O)c1C#N	> 100	> 100	> 100	> 100	–	> 100	> 100	> 100	> 100	> 100	–	–	–	–	–	–	–	–	–
CC(C)(C)OC(=O)NCCCCC(NC(=O)c1ccccc1)C(N)=O (configuration not stated)	> 100	> 100	> 100	> 100	–	> 100	> 100	> 100	–	> 100	–	–	–	–	–	–	–	–	–
CCOC(=O)N(c1ccccc1)N(CC)C(=O)/C(C)=N/Nc1ccc([N+](=O)[O-])cc1	37.1	29.3	–	39.8	30.3	–	–	30	37.5	26.2	–	–	–	–	–	–	–	–	–
CC(=O)Oc1ccc(/C=C/C(=O)O[C@@H](C(=O)O)[C@@H](OC(=O)/C=C/c2ccc(OC(C)=O)c(OC(C)=O)c2)C(=O)O)cc1OC(C)=O	> 100	> 100	> 100	> 100	> 100	> 100	> 100	–	–	> 100	–	–	–	–	–	–	–	–	–
CC(C)C1N(C)c2ccc(Cl)cc2[C@H]2c3ccccc3CCN12 (some centres not stated)	> 100	88.2	> 100	> 100	> 100	> 100	–	> 100	67.9	> 100	–	–	–	–	–	–	–	–	–
